# Entries after “also recorded” stand apart in the source; their conditions may differ.
# Columns and labels:
# ob/ob mice = assay: Liver histology and liver/serum triglyceride concentrations in ob/ob mice; assay type: in vivo, mouse; conditions: GSNO-injected vs PBS-injected ob/ob mice
# Source text: Formalin-fixed liver sections were stained with Trichrome Stain Kit (Sigma) according to the manufacturer's instructions. Triglycerides were extracted from liver according to the Folch method (Folch et al. (1957) J. Biol. Chem., 226:497-509). Serum and liver triglyceride concentrations were quantified with a triglyceride quantification kit following the manufacturer's instructions (Abcam). Leptin-deficient mice develop liver steatosis spontaneously under normal chow diet starting at 4 to 5 weeks of life that is characterized by a diminished rate of palmitate oxidation and accumulation of fat droplets in the form of triglycerides within the hepatocytes (Brix et al. (2002) Mol. Genet. Metab., 75:219-226; de Oliveira et al. (2008) J. Am. Coll. Nutr., 27:299-305). […] This significant reduction in the rate of palmitoyl-CoA oxidation indicated a deficiency in mitochondrial β-oxidation of fatty acids. […] GSNO was used to deliver nitric oxide equivalents because of the extensive use of this pharmacological agent in cellular models to modify proteins by S-nitrosylation […] cellular permeability (Hara et al. (2005) Nat. Cell Biol., 7:665-674; Chung et al. (2004) Science 304:1328-1331). […] Moreover, the restoration of palmitoyl-CoA oxidation in GSNO-injected ob/ob mice was associated with a significant reduction of the concentration of liver triglycerides. […]
# C238A VLCAD = molecular target: T1, C238A VLCAD (Mus musculus, UniProt P50544, C238A); assay: Hepa 1 to 6 cells expressing FLAG-tagged C238A VLCAD exposed to GSNO; assay type: cell-based; conditions: same GSNO treatment
# T1 construct: 3xFLAG (C); host or cells: Hepa 1 to 6 cells
# T1 sequence (P50544 42-656 C238A): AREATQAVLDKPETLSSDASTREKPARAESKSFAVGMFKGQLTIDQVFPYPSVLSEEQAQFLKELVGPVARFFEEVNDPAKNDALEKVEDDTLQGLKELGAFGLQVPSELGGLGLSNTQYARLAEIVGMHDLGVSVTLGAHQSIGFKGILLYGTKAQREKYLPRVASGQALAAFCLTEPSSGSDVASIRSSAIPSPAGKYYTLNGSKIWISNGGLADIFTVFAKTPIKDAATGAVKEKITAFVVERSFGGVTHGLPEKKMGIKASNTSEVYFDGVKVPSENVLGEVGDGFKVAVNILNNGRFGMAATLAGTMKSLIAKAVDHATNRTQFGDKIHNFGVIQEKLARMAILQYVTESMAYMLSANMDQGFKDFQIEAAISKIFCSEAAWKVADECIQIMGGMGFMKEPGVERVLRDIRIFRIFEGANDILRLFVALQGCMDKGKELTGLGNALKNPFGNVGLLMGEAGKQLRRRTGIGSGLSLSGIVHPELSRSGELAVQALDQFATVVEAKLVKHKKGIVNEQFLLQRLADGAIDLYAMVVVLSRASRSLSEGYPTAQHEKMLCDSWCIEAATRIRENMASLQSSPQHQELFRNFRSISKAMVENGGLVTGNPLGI
# Protocol: Liver homogenate (final concentration of 0.03 μg/μl) or cell lysate (final concentration of 0.09 μg/μl) in 100 mM potassium phosphate buffer (pH 7.2) containing 0.2% Triton X-100 and 0.1 mM EDTA was mixed with […] ferricenium ion, and the reaction was initiated by the addition of palmitoyl-CoA (the final volume of the assay was 130 μl). […] At least nine concentrations of palmitoyl-CoA, ranging from 0.015 to 2 mM, were used for the experimental determination of the apparent Vmax and KM of VLCAD for each animal. […] A unit of enzyme activity is defined as the amount of enzyme that causes the reduction of […] of ferricenium per minute at room temperature (ε=4.3 mM^−1 cm^−1 at 300 nm) (Izai et al. (1992) J. Biol. Chem., 267:1027-1033). […] The measurement of specific activity of VLCAD in liver homogenates (FIG. 2H) and cell lysates (FIG. 4) was performed in the presence of 0.25 and 0.125 mM palmitoyl-CoA, respectively.
# The QuikChange® Lightning Site-Directed Mutagenesis Kit (Agilent Technologies) was used to introduce single amino acid mutations in complementary DNA encoding VLCAD. A cysteine-to-alanine mutant at amino acid position 238 was generated with Ex-Mm01013-M14 (hereinafter referred to as pVLCAD-3×FLAG®), a plasmid encoding mouse VLCAD fused to three FLAG® tags in the C-terminal region of the protein (GeneCopoeia), as a template. […]
smiles,measurement,setting,value
"N[C@@H](CCC(=O)N[C@@H](CSN=O)C(=O)NCC(=O)O)C(=O)O [GSNO, S-nitrosoglutathione]",fat deposits in liver slices (trichrome histology),ob/ob mice,diminished fatty acid deposition; also recorded: fewer fat deposits
same,basal activity of C238A VLCAD mutant in response to GSNO,C238A VLCAD,did not change
